Reference: patent US10287251B2, “Pyrazole derivative or pharmaceutically acceptable salt thereof” (KISSEI PHARMACEUTICAL CO., LTD., priority 2015, dated 2019)

target: T1, TRPM8 (Rattus norvegicus, UniProt Q8R455); assay: Confirmation test of inhibitory effects on icilin-induced wet-dog shakes; assay type: in vivo; settings: female SD rats, oral dose 1 mg/kg, icilin 1 mg/kg i.p. 1 hour after dosing, shakes counted for 5 minutes
T1 construct: from tissue; host or cells: whole animal, female SD rats (in vivo)
Description: Further, TRPM8 inhibitory activity can be evaluated by the efficacy inhibiting the wet-dog shake action which is induced by the administration of Icilin, TRPM8 agonist. Furthermore, an effect on overactive bladder (OAB) can be evaluated by an elongation of micturition interval against overactive bladder induced by acetic acid in accordance with a similar method described in J. Urol., 2001, 166, 1142.
Confirmation Test of Inhibitory Effects on Icilin-induced Wet-dog Shakes
Test compounds were dissolved in dimethylacetamide (wako), and 0.5% methylcellulose solution (wako) was added to make the solution or suspension containing 5% of dimethylacetatnide. At a dose of 0.3 to 10 mg/kg/5mL of test compounds were orally administered to female SD rats. After 1 hour, wet-dog shakes were induced by the intraperitoneal injection of icilin (1 mg/kg) which was dissolved in polyethylene glycol 400 (wako). From 5 minutes after the administration of icilin, wet-dog shakes were counted for 5 minutes. For control example, vehicle (a mixture of dimethylacetamide (wako): 0.5% methylcellulose (wako)=5:95) was administrated similarly, and the number of wet-dog shakes was counted in the same manner. A percent inhibition of wet-dog shakes by test compound was calculated from the following formula: [1-(test compound wet-dog shake count/vehicle wet-dog shake count)]×100.

T1 sequence (Q8R455 whole entry): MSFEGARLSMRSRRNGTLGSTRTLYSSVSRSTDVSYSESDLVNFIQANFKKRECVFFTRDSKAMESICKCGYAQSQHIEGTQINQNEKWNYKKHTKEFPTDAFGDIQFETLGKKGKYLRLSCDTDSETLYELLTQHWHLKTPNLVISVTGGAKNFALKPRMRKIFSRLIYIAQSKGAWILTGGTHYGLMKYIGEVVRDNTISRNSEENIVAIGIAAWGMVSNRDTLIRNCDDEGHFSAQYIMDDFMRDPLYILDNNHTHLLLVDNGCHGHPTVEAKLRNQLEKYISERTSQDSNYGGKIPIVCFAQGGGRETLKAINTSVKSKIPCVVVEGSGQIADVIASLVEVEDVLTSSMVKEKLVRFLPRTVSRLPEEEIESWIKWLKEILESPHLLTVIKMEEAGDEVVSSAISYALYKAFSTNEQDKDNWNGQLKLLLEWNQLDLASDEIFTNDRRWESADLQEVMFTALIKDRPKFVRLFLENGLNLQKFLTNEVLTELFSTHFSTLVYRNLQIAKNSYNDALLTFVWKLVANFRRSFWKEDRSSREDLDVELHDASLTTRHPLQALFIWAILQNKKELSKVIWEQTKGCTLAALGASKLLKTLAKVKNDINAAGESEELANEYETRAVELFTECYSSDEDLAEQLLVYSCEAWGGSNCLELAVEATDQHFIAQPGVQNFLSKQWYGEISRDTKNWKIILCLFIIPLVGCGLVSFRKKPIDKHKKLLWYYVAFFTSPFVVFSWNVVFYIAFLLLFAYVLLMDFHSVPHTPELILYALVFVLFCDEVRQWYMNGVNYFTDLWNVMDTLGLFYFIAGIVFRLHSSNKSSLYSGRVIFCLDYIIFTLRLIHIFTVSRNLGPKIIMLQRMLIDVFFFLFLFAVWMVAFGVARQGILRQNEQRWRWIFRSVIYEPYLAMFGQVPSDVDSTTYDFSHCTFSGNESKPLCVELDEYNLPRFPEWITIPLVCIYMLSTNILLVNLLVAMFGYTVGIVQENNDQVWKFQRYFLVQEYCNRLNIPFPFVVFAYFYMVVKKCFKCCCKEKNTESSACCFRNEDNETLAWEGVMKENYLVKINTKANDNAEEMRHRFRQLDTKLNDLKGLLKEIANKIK

**Q.** With `O=C(N[C@@H](CO)Cc1ccccn1)c1ccccc1-c1n[nH]c(-c2ccc(F)cc2)c1F` [Example 1-97] as the molecule, how does the “% inhibition of Wet-Dog Shake” value read?
**A.** 50%

same assay, conditions: female SD rats, oral dose 3 mg/kg, icilin 1 mg/kg i.p. 1 hour after dosing, shakes counted for 5 minutes

**Q.** Which “% inhibition of Wet-Dog Shake” value does the source give for `O=C(N[C@@H](CO)C(O)c1ccccn1)c1cccc(F)c1-c1cc(-c2ccc(F)cc2)[nH]n1` (single isomer, unassigned) [Example 54-1] here?
**A.** 70%

**Q.** Which “% inhibition of Wet-Dog Shake” value does the source give for `O=C(N[C@@H](CO)C(O)c1ccccn1)c1cccc(F)c1-c1cc(-c2ccc(F)cc2)[nH]n1` (single isomer, unassigned) [Example 54-2] here?
**A.** 48%

**Q.** For `O=C(N[C@@H](CO)Cc1ccccn1)c1ccccc1-c1cc(-c2ccc(F)c(F)c2)[nH]n1` [Example 1-29], which “% inhibition of Wet-Dog Shake” value is on record?
**A.** 66%

**Q.** For `O=C(N[C@@H](CO)Cc1ccccn1)c1ccccc1-c1cc(-c2ccc(Cl)cc2)[nH]n1` [Example 1-59], which “% inhibition of Wet-Dog Shake” value is on record?
**A.** 46%

**Q.** `O=C(N[C@@H](CO)Cc1ccccc1)c1ccccc1-c1cc(-c2ccc(F)c(F)c2)[nH]n1` [Example 1-62] was tested. Which “% inhibition of Wet-Dog Shake” value did it give?
**A.** 55%

**Q.** Which “% inhibition of Wet-Dog Shake” value does the source give for `O=C(N[C@@H](CO)Cc1ccccn1)c1cccc(OC(F)(F)F)c1-c1cc(-c2ccc(F)cc2)[nH]n1` [Example 1-64] here?
**A.** 69%

**Q.** How did the “% inhibition of Wet-Dog Shake” value turn out when `O=C(N[C@@H](CO)Cc1ccccc1)c1cccc(F)c1-c1cc(-c2ccccc2)[nH]n1` [Example 1-68] was run?
**A.** 41%

**Q.** `O=C(N[C@@H](CO)Cc1ccccc1)c1cccc(F)c1-c1cc(-c2ccc(F)cc2)[nH]n1` [Example 1-86] was tested. Which “% inhibition of Wet-Dog Shake” value did it give?
**A.** 76%

**Q.** `O=C(N[C@@H](CO)Cc1ccccn1)c1cccc(Cl)c1-c1cc(-c2ccc(F)cc2)[nH]n1` [Example 1-103] was tested. Which “% inhibition of Wet-Dog Shake” value did it give?
**A.** 45%

**Q.** How did the “% inhibition of Wet-Dog Shake” value turn out when `C[C@H](O)[C@@H](Cc1ccccc1)NC(=O)c1cccc(F)c1-c1cc(-c2ccc(F)cc2)[nH]n1` [Example 1-104] was run?
**A.** 60%

**Q.** How did the “% inhibition of Wet-Dog Shake” value turn out when `O=C(N[C@@H](CO)Cc1ccccn1)c1cccc(F)c1-c1n[nH]c(-c2ccc(F)cc2)c1F` [Example 1-105] was run?
**A.** 90%

**Q.** For `COc1cccnc1C[C@H](CCO)NC(=O)c1cccc(F)c1-c1cc(-c2ccc(F)cc2)[nH]n1` [Example 1-108], which “% inhibition of Wet-Dog Shake” value is on record?
**A.** 61%

**Q.** For `CC(O)[C@@H](Cc1ccccn1)NC(=O)c1cccc(F)c1-c1cc(-c2ccc(F)cc2)[nH]n1` (some centres unmarked) [Example 1-113], which “% inhibition of Wet-Dog Shake” value is on record?
**A.** 98%

**Q.** With `Cc1cccnc1C[C@H](CCO)NC(=O)c1cccc(F)c1-c1cc(-c2ccc(F)cc2)[nH]n1` [Example 1-117] as the molecule, how does the “% inhibition of Wet-Dog Shake” value read?
**A.** 46%

**Q.** For `CC(O)[C@@H](Cc1ccccn1)NC(=O)c1cccc(F)c1-c1cc(-c2ccc(F)cc2)[nH]n1` (some centres unmarked) [Example 1-124], which “% inhibition of Wet-Dog Shake” value is on record?
**A.** 42%

**Q.** How did the “% inhibition of Wet-Dog Shake” value turn out when `C[C@H](O)C[C@@H](Cc1ccccn1)NC(=O)c1cccc(F)c1-c1cc(-c2ccc(F)cc2)[nH]n1` [Example 1-130] was run?
**A.** 92%

same assay, conditions: female SD rats, oral dose 10 mg/kg, icilin 1 mg/kg i.p. 1 hour after dosing, shakes counted for 5 minutes

**Q.** With `O=C(NCCc1ccccn1)c1ccccc1-c1cc(-c2ccccc2)[nH]n1` [Example 1-3] as the molecule, how does the “% inhibition of Wet-Dog Shake” value read?
**A.** 66%

**Q.** Which “% inhibition of Wet-Dog Shake” value does the source give for `NC(=O)[C@@H](Cc1ccccn1)NC(=O)c1ccccc1-c1cc(-c2ccccc2)[nH]n1` [Example 1-15] here?
**A.** 54%

**Q.** How did the “% inhibition of Wet-Dog Shake” value turn out when `O=C(N[C@@H](CO)Cc1ccccn1)c1ccccc1-c1cc(-c2ccccc2)[nH]n1` [Example 1-27] was run?
**A.** 68%

**Q.** With `O=C(N[C@@H](CO)Cc1ccccn1)c1cccc(F)c1-c1cc(-c2ccccc2)[nH]n1` [Example 1-69] as the molecule, how does the “% inhibition of Wet-Dog Shake” value read?
**A.** 93%

**Q.** Which “% inhibition of Wet-Dog Shake” value does the source give for `O=C(NC(CCO)Cc1ccccc1)c1ccccc1-c1cc(-c2ccc(F)cc2)[nH]n1` (centres unmarked) [Example 1-76] here?
**A.** 72%

**Q.** With `NC(=O)C[C@@H](Cc1ccccc1)NC(=O)c1ccccc1-c1cc(-c2ccc(F)cc2)[nH]n1` [Example 1-77] as the molecule, how does the “% inhibition of Wet-Dog Shake” value read?
**A.** 59%

**Q.** `O=C(N[C@@H](CO)Cc1ccccn1)c1ccccc1-c1cc(-c2ccc(Cl)c(F)c2)[nH]n1` [Example 1-85] was tested. Which “% inhibition of Wet-Dog Shake” value did it give?
**A.** 86%

**Q.** How did the “% inhibition of Wet-Dog Shake” value turn out when `O=C(N[C@@H](CO)Cc1ccccn1)c1c(F)cccc1-c1cc(-c2ccc(F)cc2)[nH]n1` [Example 1-94] was run?
**A.** 100%

**Q.** For `NC(=O)C[C@@H](Cc1ccccc1)NC(=O)c1cccc(F)c1-c1cc(-c2ccc(F)cc2)[nH]n1` [Example 1-128], which “% inhibition of Wet-Dog Shake” value is on record?
**A.** 59%
